Experimental data as given in ChEMBL document CHEMBL4610029, “Essential structure of orexin 1 receptor antagonist YNT-707, part V: Structure-activity relationship study of the substituents on the 17-amino group” (Bioorg Med Chem Lett, 2020).

Assays:
[1] = target: T1, Orexin/Hypocretin receptor type 1 (Homo sapiens, UniProt O43613); experiment: Antagonist activity at OX1R (unknown origin) assessed as inhibition of orexin A-induced intracellular Ca2+ release by cell-based assay; format: functional
T1 sequence (O43613 whole entry): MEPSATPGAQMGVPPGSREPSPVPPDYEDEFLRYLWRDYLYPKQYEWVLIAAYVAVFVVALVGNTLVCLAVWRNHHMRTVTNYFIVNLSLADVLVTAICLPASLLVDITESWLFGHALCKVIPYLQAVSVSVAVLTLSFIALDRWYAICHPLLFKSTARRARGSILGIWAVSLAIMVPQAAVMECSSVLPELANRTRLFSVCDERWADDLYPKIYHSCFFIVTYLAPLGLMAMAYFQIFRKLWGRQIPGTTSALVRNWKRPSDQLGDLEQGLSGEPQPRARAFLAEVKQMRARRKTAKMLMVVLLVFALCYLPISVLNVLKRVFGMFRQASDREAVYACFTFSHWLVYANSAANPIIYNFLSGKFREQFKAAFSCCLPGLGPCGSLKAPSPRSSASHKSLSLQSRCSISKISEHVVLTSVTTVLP

[2] = target: T2, Orexin/Hypocretin receptor type 1 (Homo sapiens) (UniProt O43613); experiment: Antagonist activity at OX1R (unknown origin) assessed as inhibition of orexin A-induced intracellular Ca2+ release at 10 uM by cell-based assay relative to control; format: functional
T2 sequence (whole entry): T1 sequence (O43613 whole entry)

COc1ccc2c3c1O[C@@H]1C3[C@@](O)(CC[C@H]1N(C)C(=O)/C=C/c1ccoc1)[C@H](N(CC1CC1)C(=O)OC(C)(C)C)C2 (stereo partly specified)
Ki ([1]; read-out: Ki): 72.8 nM

COc1ccc2c3c1O[C@@H]1C3[C@@](O)(CC[C@H]1N(C)C(=O)/C=C/c1ccoc1)[C@H](NCC1CC1)C2 (stereo partly specified)
Ki [1]: Not Active

COc1ccc2c3c1O[C@@H]1C3[C@@H](CC[C@H]1N(C)C(=O)/C=C/c1ccoc1)[C@H](N(C)S(=O)(=O)c1ccccc1)C2 (stereo partly specified)
Ki ([1]; read-out: Ki): 829 nM

COc1ccc2c3c1O[C@@H]1C3[C@@](O)(CC[C@H]1N(C)C(=O)/C=C/c1ccoc1)[C@H](N(CC1CC1)C(C)=O)C2 (stereo partly specified)
inhibition [2]: 48%

COc1ccc2c3c1O[C@@H]1C3[C@@H](CC[C@H]1N(C)C(=O)/C=C/c1ccoc1)[C@H](N(CC1CC1)C(=O)OC(C)(C)C)C2 (stereo partly specified)
Ki ([1]; read-out: Ki): 14.8 nM

COc1ccc2c3c1O[C@@H]1C3[C@]3(CC[C@H]1N(C)C(=O)/C=C/c1ccoc1)OC(=O)N(CC1CC1)[C@@H]3C2 (stereo partly specified)
Ki ([1]; read-out: Ki): 538 nM

COc1ccc2c3c1O[C@@H]1C3[C@@](O)(CC[C@H]1N(C)C(=O)/C=C/c1ccoc1)[C@H](N(CC1CC1)C(=O)c1ccccc1)C2 (stereo partly specified)
Ki ([1]; read-out: Ki): 275 nM

COc1ccc2c3c1O[C@@H]1C3[C@@H](CC[C@H]1N(C)C(=O)/C=C/c1ccoc1)[C@H](NCC1CC1)C2 (stereo partly specified)
Ki ([1]; read-out: Ki): 392 nM

COc1ccc2c3c1O[C@@H]1C3[C@@](O)(CC[C@H]1N(C)C(=O)/C=C/c1ccoc1)[C@H](N(CC1CC1)C(=O)C1CC1)C2 (stereo partly specified)
Ki ([1]; read-out: Ki): 1090 nM

COc1ccc2c3c1O[C@@H]1C3[C@@H](CC[C@H]1N(C)C(=O)/C=C/c1ccoc1)[C@H](N(C)CC1CC1)C2 (stereo partly specified)
Ki ([1]; read-out: Ki): 50.1 nM

COc1ccc2c3c1O[C@@H]1C3[C@]3(CC[C@H]1N(C)C(=O)/C=C/c1ccoc1)OS(=O)(=O)N(CC1CC1)[C@@H]3C2 (stereo partly specified)
Ki ([1]; read-out: Ki): 1200 nM
